Assay results taken from patent publication US9458192B1, “Covalent granzyme B inhibitors” (viDA Therapeutics Inc., priority 2014, dated 2016).

Biological target: GzmB (Homo sapiens, UniProt P10144)
Assay: Inhibition of fibronectin cleavage by GzmB
Assay type: biochemical
Settings: 20 nM granzyme B, Hilyte Fluor 488 labeled fibronectin, 30° C.
Protocol: Black, 96 well high-binding assay plates (Griener Bio-one) were treated overnight at 4° C. with 40 uL of 8 ug/mL Hilyte Fluor 488 labeled Fibronectin (Cytoskeleton, Inc). After fibronectin coating, plates were washed 3 times in buffer (20 mM Tris-HCl, pH 7.4, 20 mM NaCl) then once with granzyme B assay buffer (50 mM HEPES, pH 7.5, 0.1% CHAPS). After washing, 50 uL of granzyme B assay buffer was added to each fibronectin-coated well. In a separate non-binding 96 well assay plate 5 uL of 20× inhibitor serial dilution stocks were added to 45 uL of 2.22×GzmB mix to establish inhibition (enzyme/inhibitor mixes were all prepared in granzyme B assay buffer and were incubated first at room temperature for 20 minutes, then at 30° C. for another 10 minutes). After incubation, 50 uL of this 2× enzyme/inhibitor mix was added to the corresponding coated well to initiate fibronectin cleavage (20 nM final granzyme B concentration, 8-point inhibitor dilution series starting at 50 uM). The assay was conducted at 30° C. in the TECAN plate reader (TECAN INFINITE® M1000 Pro), which was programmed to monitor the kinetic fluorescence polarization signal (filter set Ex/Em 470 nm/527 nm) with readings taken every minute, for 1 hour. Proteolytic activity was evaluated as the rate of fluorescence enhancement in the parallel emission over the linear range of the reaction. % Inhibition values were calculated from assay controls and the resulting date is shown in Table 2.

GzmB, sequence (P10144 21-247): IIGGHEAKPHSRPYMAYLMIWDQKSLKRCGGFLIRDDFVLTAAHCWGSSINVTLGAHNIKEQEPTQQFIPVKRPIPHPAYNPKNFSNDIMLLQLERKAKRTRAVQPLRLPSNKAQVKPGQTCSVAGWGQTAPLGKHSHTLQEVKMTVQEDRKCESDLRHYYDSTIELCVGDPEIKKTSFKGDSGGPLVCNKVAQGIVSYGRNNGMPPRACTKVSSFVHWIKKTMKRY

## CC[C@H](C)[C@H](NC(=O)CCC(=O)O)C(=O)NCC(=O)N1c2ccccc2C[C@H]1C(=O)NC(C=O)CC(=O)O (stereo in doubt) [Compound C1, (S)-3-{[1-{2-[(2S,3S)-2-(3-carboxypropanamido)-3-methylpentanamido]acetyl}-2,3-dihydro-1H-indol-2-yl]formamido}-4-oxobutanoic acid]
0.62 uM inhibitor, read-out: Percent Inhibition at Inhibitor Concentration 0.62 uM
  inhibition at 0.62 µM: 60%
5.56 uM inhibitor, read-out: Percent Inhibition at Inhibitor Concentration 5.56 uM
  inhibition at 5.56 µM: 87%
50 uM inhibitor, read-out: Percent Inhibition at Inhibitor Concentration 50 uM
  inhibition at 50 µM: 95%
